# Experimental data: patent US4248883A, “1-(3-Mercapto-2-methylpropanoyl)prolyl amino acid derivatives and salts thereof, processes for their preparation, and pharmaceutical compositions containing such compounds” (Dainippon Pharmaceutical Co., Ltd., priority 1978, dated 1981)
# Read-outs that look alike come from different tables or passages of the source.
# Legend:
# in vivo = conditions: mouse, in vivo
# Excerpt: (§1) Male STD-ddY strain mice, weighing 21 to 24 grams, were used.
# mice = assay: Test 2: toxicity (acute LD50 in mice); conditions: mice
# Excerpt: as §1
# [1] = test system: Goldblatt two-kidney renal hypertensive rats; assay: Test 1: antihypertensive activity, oral, tail-plethysmographic blood pressure in Goldblatt two-kidney renal hypertensive rats; assay type: in vivo, rat (male STD Wistar strain); conditions: for change in vivo at 100 µmol/kg: Rattus norvegicus; for Peak time (time at which the maximum hypotensive effect was observed): renal hypertensive rats; for antihypertensive effect time course relative to compound 1 (SQ-14225), FIGS. 1 and 2: single oral, 0.015 millimole/kg and 0.1 millimole/kg, mean of six animals
# Excerpt: The contralateral kidney and its renal artery were left intact. The animals were maintained on commercial rat chow and tap water ad libitum.
# In each Figure, the ordinate represents the changes in blood pressure (mmHg) and the abscissa, the time (hours) elapsed after oral administration.
# [2] = test system: angiotensin I-converting enzyme; conditions: Biochemistry, 16, 5484 (1977); cited from earlier work
# [3] = test system: experimental hypertensive animals; conditions: Science 196, 441 (1977); cited from earlier work
# [4] = test system: angiotensin I-converting enzyme; conditions: Science 196, 441 (1977); cited from earlier work
# [5] = oral, 0.1 millimole/kg, 7 hours after administration, % of initial blood pressure, read-out: Change in blood pressure, 7 hours after administration (%)
# [6] = oral, 0.1 millimole/kg, at peak time, % of initial blood pressure, read-out: Change in blood pressure, peak time (%)
# [7] = oral, 0.1 millimole/kg, 7 hours after administration
# [8] = oral, 0.1 millimole/kg, at peak time
# [9] = oral, 0.1 millimole/kg, positive = decrease
SMILES,LD50 (in vivo; iv) [mg/kg],LD50 (in vivo; po) [mg/kg],toxicity (in words) (mice),"change in vivo at 100 µmol/kg [1, 5] [%]","change in vivo at 100 µmol/kg [1, 6] [%]","Change in blood pressure, 7 hours after administration [1, 7] [mmHg]","Change in blood pressure, peak time [1, 8] [mmHg]","Peak time (time at which the maximum hypotensive effect was observed) ([1]; oral, 0.1 millimole/kg) [h]","antihypertensive effect time course relative to compound 1 (SQ-14225), FIGS. 1 and 2 [1]",inhibition of angiotensin I-converting enzyme in vitro [2],antihypertensive activity in experimental hypertensive animals [3],"change in vivo at 100 µmol/kg ([1]; po, 7 h, read-out: Change in blood pressure, 7 hours after administration (%)) [%]","change in vivo at 100 µmol/kg ([1]; po, read-out: Change in blood pressure, peak time (%)) [%]","decrease in initial blood pressure at 7 hours after medication [1, 9] [%]","maximum hypotensive response (decrease in initial blood pressure) [1, 9] [%]",inhibitory activity in vivo on angiotensin I-converting enzyme [4],"reduction of blood pressures (in words) ([1]; oral, 0.1 millimole/kg)"
"CC(=O)SC[C@@H](C)C(=O)N1CCC[C@H]1C(=O)N[C@@H](Cc1ccccc1)C(=O)O [A, 1-(D-3-Acetylthio-2-methylpropanoyl)-L-prolyl-L-phenylalanine]",> 1000,> 6000,very weak,-16,-17,-33,-35,5,milder and more prolonged antihypertensive effect,–,–,–,–,–,–,–,–
"CCC(=O)SC[C@@H](C)C(=O)N1CCC[C@H]1C(=O)N[C@@H](Cc1ccccc1)C(=O)O [B, 1-(D-3-Propanoylthio-2-methylpropanoyl)-L-prolyl-L-phenylalanine]",> 1000,> 6000,very weak,-17,-18,-36,-40,5,milder and more prolonged antihypertensive effect,–,–,–,–,–,–,–,–
"C[C@H](CSC(=O)C(C)(C)C)C(=O)N1CCC[C@H]1C(=O)N[C@@H](Cc1ccccc1)C(=O)O [C, 1-[D-3-(2,2-Dimethylpropanoyl)thio-2-methylpropanoyl]-L-prolyl-L-phenylalanine]",–,–,–,-18,-20,-37,-41,5,–,–,–,–,–,–,–,–,–
"C[C@H](CS)C(=O)N1CCC[C@H]1C(=O)O [Compound 1, 1-(D-3-Mercapto-2-methylpropanoyl)-L-proline, reference compound]",–,–,–,–,–,-15,-35,–,–,particularly good inhibitor of angiotensin I-converting enzyme,superior antihypertensive activity,-8,-18,8,18,potent inhibitory activity in vivo,–
"C[C@H](CS)C(=O)N1CCC[C@H]1C(N)=O [Compound 2, 1-(D-3-Mercapto-2-methylpropanoyl)-L-proline amide, reference compound]",–,–,–,-1,-3,-1,-5,2,–,–,–,–,–,–,–,–,did not reduce blood pressures
"CC(=O)SC[C@@H](C)C(=O)N1CCC[C@H]1C(N)=O [Compound 3, 1-(D-3-Acetylthio-2-methylpropanoyl)-L-proline amide, reference compound]",–,–,–,-2,-4,-4,-7,2,–,–,–,–,–,–,–,–,did not reduce blood pressures
"CC(C)C(=O)SC[C@@H](C)C(=O)N1CCC[C@H]1C(=O)N[C@@H](Cc1ccccc1)C(=O)O [D, 1-[D-3-(2-Methylpropanoyl)thio-2-methylpropanoyl]-L-prolyl-L-phenylalanine]",–,–,–,-14,-18,-29,-37,5,–,–,–,–,–,–,–,–,–
"CCSSC[C@@H](C)C(=O)N1CCC[C@H]1C(=O)N[C@@H](Cc1ccccc1)C(=O)O [E, 1-(D-3-Ethyldithio-2-methylpropanoyl)-L-prolyl-L-phenylalanine]",–,–,–,-19,-19,-38,-38,7,–,–,–,–,–,–,–,–,–
"C[C@H](CSC(=O)c1ccccc1)C(=O)N1CCC[C@H]1C(=O)N[C@@H](Cc1ccccc1)C(=O)O [F, 1-(D-3-Benzoylthio-2-methylpropanoyl)-L-prolyl-L-phenylalanine]",–,–,–,-15,-15,-31,-31,5,–,–,–,–,–,–,–,–,–
"COC(=O)[C@H](Cc1ccc(O)cc1)NC(=O)[C@@H]1CCCN1C(=O)[C@H](C)CSC(C)=O [G, 1-(D-3-Acetylthio-2-methylpropanoyl)-L-prolyl-L-tyrosine methyl ester]",–,–,–,-15,-17,-29,-33,5,–,–,–,–,–,–,–,–,–
"CCOC(=O)[C@H](Cc1ccc(O)cc1)NC(=O)[C@@H]1CCCN1C(=O)[C@H](C)CSC(C)=O [H, 1-(D-3-Acetylthio-2-methylpropanoyl)-L-prolyl-L-tyrosine ethyl ester]",–,–,–,-14,-17,-29,-34,5,–,–,–,–,–,–,–,–,–
"CCOC(=O)[C@H](Cc1c[nH]c2ccccc12)NC(=O)[C@@H]1CCCN1C(=O)[C@H](C)CSC(C)=O [I, 1-(D-3-Acetylthio-2-methylpropanoyl)-L-prolyl-L-tryptophan ethyl ester]",–,–,–,-14,-16,-26,-30,5,–,–,–,–,–,–,–,–,–
"CCOC(=O)[C@H](CCSC)NC(=O)[C@@H]1CCCN1C(=O)[C@H](C)CSC(C)=O [J, 1-(D-3-Acetylthio-2-methylpropanoyl)-L-prolyl-L-methionine ethyl ester]",–,–,–,-13,-15,-27,-30,5,–,–,–,–,–,–,–,–,–
